The record followed here is patent US20040077720A1, “Inhibition of antibody production employing perfluorooctanoic acid or derivatives thereof” (priority 2002, published 2004).

The test system of one test is horse erythrocytes. In words: Immunization with horse erythrocytes after treatment; antibody response. It is filed as in vivo. The settings on record: mice treated, then immunized with horse erythrocytes. From the text: (§1) By inhibiting antibody production, this substance also prevents the formation of immunocomplexes. These treated animals appear completely normal, without joint deterioration, lymphocyte proliferation, dermal vasculitis or immunocomplex-mediated glomerulonephritis.

Test [1] has as its system MRL/MpJ-Tnfrsf6^1pr-Mice. In words: Withdrawal study in treated MRL mice. The format is in vivo. The method, then: (§2) The presence of circulating immunocomplexes is analyzed indirectly by continuous monitoring of the levels of protein, hemoglobin and erythrocytes in the urine of these animals, the quantities of which are directly related to the severity of the immunocomplex-mediated glomerulonephritis which develops. […] The effectiveness of a low dose of the substance and 100% reproducibility argue for a direct inhibition of the mechanism(s) underlying development of the disease.
as §1
In a separate study compound B was withdrawn from mice treated during 23-26 weeks. The mice were followed for up to 39-42 weeks.

The subject of a further test is thymus and spleen. In words: Laboratory studies: thymus and spleen. Also on record: species or system rodent. The note with it: in vivo. From the text: PFOA belongs to a group of chemicals that induce peroxisome proliferation in the liver in rodent. […] These initial observations led to the inventors' discovery that PFOA could interfere with the immune system, and that PFOA could express immunosuppressive properties.

The test system of test [2] is MRL/MpJ-Tnfrsf6^1pr-Mice. In words: Treatment of MRL/MpJ-Tnfrsf6 lpr mice (spontaneous SLE-like autoimmune syndrome); clinical observation, urine, autopsy. The format is in vivo.
Description: As the experimental animal model for studies of inhibition of disease development and the underlying mechanism(s), Applicants have employed MRL-Tnfrs6/1 pr mice, which spontaneously develop high levels of a wide range of antibodies and an SLE-like syndrome, including severe lymphoadrenopathy. The MRL-mouse strain is known to develop a severe autoimmune disease syndrome. In fact, it is known to develop the most severe disease state. Highs levels of circulating autoantibodies, immunocomplexes mediated glomerulonephritis, arthritis and vasculitis are observed. The mice also develop a heavy proliferation of lymph nodes.
as §2
The symptoms which these mice develop include deterioration of joints and consequent motor difficulties, kidney damage with resulting uremia (retention of fluid) and extreme lymphoadenopathy. This lymphoadenopathy arises from defects in the FAS antigen gene resulting from the lymphoproliferation (1 pr) mutation in MRL-mice. In the final stages of their disease these animals also develop dermal vasculitis. 100% of these mice develop these symptoms.
The degree of renal damage can be monitored on the basis of the level of protein, erythrocytes, hemoglobin and hyalin cylinders in the urine. Lymphocyte proliferation can be assessed from the growth of lymph nodes in the shoulders and groin, as well as along the aorta. Blood and tissue samples are collected for analysis and histopathological examination.
Animal Model: MRL/MpJ-Tnfrsf6^1pr-Mice
This strain develops spontaneous systemic lupus erythematosus-like autoimmune syndrome at or about 8 weeks of age. The syndrome is characterized by massive lymphadenopathy, immune complex glomerulonephritis, arthritis, high level of circulating antibodies, and vasculitis.
Compounds A and B were tested. Compound A was a reference compound and compound B was PFOA. Treatment was initiated at the age of 5 and 8 weeks, respectively. All animals received the respective compounds on a daily basis. A control group of mice without treatment was run in parallel. The following parameters were screened.
2. Investigation of urine sediment.
3. Monitoring of proteinuria.
Parameters followed during the study: 1) Clinical observation; 2) Urine: light microscopy, proteinuria. The following organs were sampled: thymus, lymph nodes, kidney, liver, and spleen. The organs were investigated by histopathology and immunohistopathology.

Setting [3] is: mouse, in vivo, listed as perfluorooctanoic acid.
The mark [4] stands for this setting: daily treatment started at age 5 or 8 weeks.

The structures appear in SMILES notation. “Also recorded” adds a separate entry of the source.

With `O=C(O)C(F)(F)C(F)(F)C(F)(F)C(F)(F)C(F)(F)C(F)(F)C(F)(F)F` [Compound B, Perfluorooctanoic acid], the “antibody response to foreign antigens” value with horse erythrocytes was “no antibody response”. Further, the “disease symptoms when treatment is terminated / substance withdrawn” value in the test on MRL/MpJ-Tnfrsf6^1pr-Mice [1] (setting [3]) was “the animals develop disease symptoms; also recorded: the mice begin to develop typical disease symptoms”. In addition, in the test on MRL/MpJ-Tnfrsf6^1pr-Mice [1] (treated during 23-26 weeks), the “time after withdrawal at which proteinuria was observed” value turned out to be 5 weeks. Further, the weight after withdrawal entry in the test on MRL/MpJ-Tnfrsf6^1pr-Mice [1] (treated during 23-26 weeks, followed up to 39-42 weeks) is on record as “an increase in weight was observed”. The “clinical symptoms after withdrawal” value with MRL/MpJ-Tnfrsf6^1pr-Mice [1] (treated during 23-26 weeks, followed up to the 42 week point) is “no sign of symptoms were observed”. For the same molecule, the thymus and spleen result in the test on thymus and spleen is “a reduction of thymus and spleen was observed”. Moreover, in the test with MRL/MpJ-Tnfrsf6^1pr-Mice [2] (at autopsy), the anasarca entry is reported as “no anasarca was detected”. In the test with MRL/MpJ-Tnfrsf6^1pr-Mice [2] (compared to control group and compound A treated mice), the survival rate result was “clear-cut increase of survival rate”. In addition, in the test on MRL/MpJ-Tnfrsf6^1pr-Mice [2] (setting [4]), the body weight result is reported as “No body weight gain” and the enlarged lymph nodes result is recorded as “No”. Moreover, in the test on MRL/MpJ-Tnfrsf6^1pr-Mice [2] (mouse, in vivo), the “clinical observation: activity / movement” value is listed as “very active”, the fur result is reported as “normal fur”, the lymphadenopathy entry is “No lymphadenothapy was observed” and the ulcers entry is recorded as “No ulcers were observed”. The “signs / symptoms of disease during treatment” value in the test with MRL/MpJ-Tnfrsf6^1pr-Mice [2] (mouse, in vivo, listed as compound B) is given as “did not develop any signs of disease”. Also, the “signs / symptoms of disease during treatment” value with MRL/MpJ-Tnfrsf6^1pr-Mice [2] (setting [3]) is “none of these disease symptoms are observed”. Also, in the test on MRL/MpJ-Tnfrsf6^1pr-Mice [2] (urine, daily treatment started at age 5 or 8 weeks), the proteinuria entry is reported as “No”.
